Results published in patent US20250281610A1, “P2RY2 ACTIVITY MODULATORS” (Deutsches Krebsforschungszentrum Stiftung des öffentlichen …, priority 2022, published 2025).

Tests used:
[1] = tested on: MART-1-specific TCR transduced T cells cultured with MART-1-epitope transduced BxPC3 cells; assay: T cell activation markers in co-culture of MART-1-specific TCR-T cells with MART-1+ BxPC3 cells; format: cell-based, human; settings: single agent: 5 μM AR-C, 10 μg/ml atezolizumab or 10 μg/ml durvalumab, 6-24 hours, CD8+ MART-1-specific TCR+ population (FIG. 10)
From the text: FIG. 10. […] Untreated cells served as the control.
(§1) MART-1 specific T cells were generated as described (Mezzadra et al., Nature 549, 106-110 (2017); Jorritsma et al., Blood 110 (10): 3564-3572. (2007)). To generate CD33-specific chimeric antigen receptor (CAR) T cells, a CD33Hul95-CD28Z CAR (described in WO 2019/178382) cassette was cloned into a retroviral vector, and the resulting virus was used to transduce T cells as described (Mezzadra et al., Nature 549, 106-110 (2017); Jorritsma et al., Blood 110 (10): 3564-3572. (2007)).
MART1-specific CD8+ T cells and MART1 epitope-expressing cancer cells were mixed at a ratio of 1:16 to 1:4. […] T cell activation was assessed by surface staining with anti-CD137-BV421 (4-1BB, Biolegend), anti-CD69-APC/Fire™ 750 (FN50, Biolegend), anti-CD25-AF700 (BC96, Biolegend) antibodies and intracellular staining with anti-IL-2-PE/Cy7 (MQ1-17H12, Biolegend), anti-IFN-7-BV421 (4S.B3, Biolegend), anti-TNF-α-BV785 (MAb11, Biolegend) antibodies, followed by flow cytometry analysis. For intracellular staining, brefeldin A (Biolegend) was added to the cell culture medium 4 h before cells were harvested. The viability of cancer cells that grow in suspension including THP-1 cells was assessed by flow cytometry-based absolute cell counting using AccuCount beads (Spherotech). For adherent cancer cells including BxPC3 and MCF7, the cell viability was quantified using CellTiter-Blue Cell Viability Assay (Promega).

BxPC3 cells = assay: Viability of BxPC3 cells in co-culture with MART-1-specific TCR-T cells (CellTiter-Blue); format: cell-based, human; settings: single agent: 5 μM AR-C, 10 μg/ml atezolizumab or 10 μg/ml durvalumab, 6-24 hours (FIG. 11)
From the text: FIG. 11. […] Untreated cells served as the control.
as §1
MART1-specific CD8+ T cells and MART1 epitope-expressing cancer cells were mixed at a ratio of 1:16 to 1:4. Next, cells were centrifugated at 1,600 g for 3 min and incubated at 37° C. and 5% CO2 for 12-72 hours. T cell activation was assessed by surface staining with anti-CD137-BV421 (4-1BB, Biolegend), anti-CD69-APC/Fire™ 750 (FN50, Biolegend), anti-CD25-AF700 (BC96, Biolegend) antibodies and intracellular staining with anti-IL-2-PE/Cy7 (MQ1-17H12, Biolegend), anti-IFN-7-BV421 (4S.B3, Biolegend), anti-TNF-α-BV785 (MAb11, Biolegend) antibodies, followed by flow cytometry analysis. For intracellular staining, brefeldin A (Biolegend) was added to the cell culture medium 4 h before cells were harvested. The viability of cancer cells that grow in suspension including THP-1 cells was assessed by flow cytometry-based absolute cell counting using AccuCount beads (Spherotech). For adherent cancer cells including BxPC3 and MCF7, the cell viability was quantified using CellTiter-Blue Cell Viability Assay (Promega).

durvalumab: Blocking antibody of the PD-L1-PD-1 immune checkpoint
expression of CD25 on T cells [1]: elevated | expression of CD69 on T cells [1]: elevated | expression of CD137 on T cells [1]: elevated | viability of BxPC3 cells (BxPC3 cells): reduced
